From patent publication US20210030718A1, “COMBINATIONS FOR TREATING CANCER” (ASTRAZENECA AB, priority 2018, published 2021)

Key:
cleaved caspase-3 = test: Western blot time course of cleaved caspase-3 in OCILy10 and TMD8; type: cell-based; details: 1 μM AZD5991 for 8 hr, alone or after 24-hour pre-treatment with 100 nM acalabrutinib
Experimental: Two BTK inhibitor-sensitive ABC-DLBCL cell lines (OCILy10 and TMD8) were treated for an 8-hour time course with either 1 μM AZD5991 alone or following a 24-hour pre-treatment with 100 nM acalabrutinib (since exposure for 24 hours was sufficient to induce maximal BH3-only protein levels). Cells were harvested for protein lysates at varying time points (0, 0.5, 1, 2, 4, and 8 hours) post-AZD5991 treatment, normalized for protein concentration using the BCA Protein Assay Kit, and run for western blots according to standard protocols. To ensure expected target engagement of acalabrutinib, the blots were probed for the proximal biomarker for activated BTK (pBTK Y223). To gauge the time to induction of apoptosis, cleaved caspase-3 was also assessed. A loading control (vinculin) was also utilized for normalization.

OCILy10 tumor cells = test: OCILy10 subcutaneous tumor model, efficacy study; type: in vivo, C.B.-17 SCID female mice; details: OCILy10 s.c. in C.B.-17 SCID mice; acalabrutinib 12.5 mg/kg po bid; AZD5991 IV once weekly
Experimental: 5×10^6 OCILy10 tumor cells were injected subcutaneously in the right flank of C.B.-17 SCID female mice in a volume of 0.1 mL containing 50% matrigel. Tumor volumes (measured by caliper), animal body weight, and tumor condition were recorded twice weekly for the duration of the studies. The tumor volume was calculated using the formula: length (mm)×width (mm)^2×0.52. For efficacy studies, growth inhibition from the start of treatment was assessed by comparison of the differences in tumor volume between control and treated groups. Dosing began when mean tumor size reached approximately 150-180 mm^3. CR=complete response. AZD5991 was formulated in 30% HPBCD (hydroxypropyl beta-cyclodextrin) in water for injection and adjusted to pH 9.0 up to a concentration of 30 mg/mL. AZD5991 was dosed IV once weekly. Acalabrutinib was formulated in 0.5% hydroxypropyl methyl cellulose/0.2% Tween 80, and dosed twice a day (bid) on an 8/16 hr split as an oral (po) administration at a volume of 10 mL/kg at a dose of 12.5 mg/kg.

Bim and Bmf = test: Western blot of BH3-only protein levels in DLBCL cell lines; type: cell-based; details: 100 nM for 24 hours; OCILy10 and TMD8 relative to the insensitive cell line Karpas422
Experimental: OCILy10, TMD8, and Karpas422 were treated with either vehicle or 100 nM acalabrutinib for 2-72 hours. Protein lysates were harvested at multiple time points in that interval, protein concentration was determined using the BCA Protein Assay Kit, and western blots were performed according to standard protocol to assess the effects on Bcl2 family protein levels. Each sample was normalized to vinculin as a loading control, and then protein levels of acalabrutinib-treated samples were calculated relative to those of vehicle-treated samples.
Each of the three cell lines were then treated with 100 nM acalabrutinib for 24 hours, and BH3-only protein levels were assessed. The levels of pro-apoptotic BH3-only proteins Bim and Bmf were increased in the two acalabrutinib-sensitive DLBCL cell lines relative to the insensitive cell line, priming the cells for apoptosis (FIG. 1). Acalabrutinib increases protein levels of pro-apoptotic proteins, including Bim and Bmf, in BTK inhibitor-sensitive DLBCL cell lines that leads to priming of cells for apoptosis. The results of Example 1 illustrate that diffuse large B-cell […] (DLBCL) cell lines display a differential sensitivity to acalabrutinib.

Karpas422 = test: CellTiter-Glo viability, 72 hours; type: cell-based; details: Homo sapiens, KARPAS-422, Karpas422, GCB-DLBCL
Experimental: (§1) Two ABC-DLBCL (OCILy10 and TMD8) cell lines and one GCB-DLBCL (Karpas422) cell line were treated with either vehicle (DMSO) or a 10-point, ½ log serially dilution of acalabrutinib for 72 hours with a CellTiter-Glo viability readout.

TMD8 = test: CellTiter-Glo viability, 72 hours; type: cell-based; details: Homo sapiens, TMD8, ABC-DLBCL
Experimental: as §1

OCILy10 = test: CellTiter-Glo viability, 72 hours; type: cell-based; details: Homo sapiens, OCI-Ly10, OCILy10, ABC-DLBCL
Experimental: as §1

Row | Compound | induction of cleaved caspase (cleaved caspase-3) | tumor growth inhibition (OCILy10 tumor cells) [%] | levels of pro-apoptotic BH3-only proteins Bim and Bmf (Bim and Bmf) | GI50 (Karpas422) [nM] | GI50 (TMD8) [nM] | GI50 (OCILy10) [nM]
1 | Cc1c2c(nn1C)CSCc1cc(n(C)n1)CSc1cc(c3ccccc3c1)OCCCc1c(C(=O)O)n(C)c3c-2c(Cl)ccc13 (atropisomer, axis not shown; (Ra)) [AZD5991, (Ra)-17-chloro-5,13,14,22-tetramethyl-28-oxa-2,9-dithia-5,6,12,13,22-pentaazaheptacyclo[27.7.1.1^4,7.0^11,15.0^16,21.0^20,24.0^30,35]octatriaconta-1(37),4(38),6,11,14,16,18,20,23,29,31,33,35-tridecaene-23-carboxylic acid] | no positive caspase activation | 44 |  |  |  | 
2 | CC#CC(=O)N1CCC[C@H]1c1nc(-c2ccc(C(=O)Nc3ccccn3)cc2)c2c(N)nccn12 [acalabrutinib, (S)-4-(8-amino-3-(1-but-2-ynoylpyrrolidin-2-yl)imidazo[1,5-a]pyrazin-1-yl)-N-(pyridin-2-yl)benzamide] |  | 79 | increased | > 31000 | 60 | 10
